According to patent US20140350078A1, “CONTROLLING REGULATORY T CELL FUNCTION” (NEW YORK UNIVERSITY, priority 2011, published 2014):

What was measured:
[1] = system: Treg suppressive function; assay: In vitro suppression assay (Tregs co-cultured with CD4+CD25- T cells at 1:3); assay type: cell-based, human; conditions: pre-treatment of Treg at 1 μM for 30 minutes, supernatants after 48 hours
Experimental: In Vitro Suppression Assays—CD4^+CD25^+ T cells were treated or not, washed, and added at a ratio of 1:3 ([…]) to CD4^+CD25^− T cells at final concentration of 2×10^6 per mL (cytokine secretion) or 2×10^5 per mL (proliferation). The cells were co-cultured on anti-CD3 mAb (5 μg/mL) pre-coated 24-well plates for 24-48 hours (cytokine secretion) or 96 hours (proliferation). Human TNF-α (210-TA) was purchased from R&D Systems and added to co-cultures where indicated. […] Cytokine secretion was determined by ELISA as described (Zanin-Zhorov et al., “Protein Kinase C-Theta Mediates Negative Feedback on Regulatory T Cell Function,” Science 328:372-376 (2010), which is hereby incorporated by reference in its entirety), using human IFN-γ Cytoset (Biosource) and IL-17 and -4 (Invitrogen). Proliferation was assessed by carboxyfluorescein diacetate succinimidyl ester (CFSE) dilution as described (Tran et al., “Analysis of Adhesion Molecules, Target Cells, and Role of IL-2 in Human FOXP3+ Regulatory T Cell Suppressor Function,” J. Immunol. 182:2929-2938 (2009), which is hereby incorporated by reference in its entirety).

[2] = system: Dlgh1 recruitment to the IS in Tregs; assay: Dlgh1 recruitment to the immunological synapse on planar lipid bilayers, imaged by TIRFM; assay type: cell-based, human; conditions: Tregs from healthy donors, 50 ng/mL overnight
Experimental: Planar lipid bilayers containing anti-CD3 antibodies (5 μg/mL) and ICAM-1 (250 molecules per mm^2) were prepared in parallel-plate flow cells as described (Zanin-Zhorov et al., “Protein Kinase C-Theta Mediates Negative Feedback on Regulatory T Cell Function,” Science 328:372-376 (2010), which is hereby incorporated by reference in its entirety). The flow cell containing the bilayers was warmed up to 37° C.; cells were injected in 500 μL of Hepes-buffered saline containing 1% human serum albumin; and images were collected on a custom automated Nikon inverted fluorescence microscope.
All TIRF imaging was performed on the custom automated Nikon inverted fluorescence microscope using the 100×/1.45 N.A. TIRF objective from Nikon. […]
The pro-inflammatory mediator TNF-α inhibits suppressive activity and down-regulates Foxp3 in human Treg (Valencia et al., “TNF Downmodulates the Function of Human CD4+CD25hi T-Regulatory Cells,” Blood 108(1):253-261 (2006); Zanin-Zhorov et al., “Protein Kinase C-Theta Mediates Negative Feedback on Regulatory T Cell Function,” Science 328(5976):372-376 (2010), both of which are hereby incorporated by reference in their entirety). To investigate whether Dlgh1 recruitment to IS correlates with suppressive function of Treg, Treg was incubated with TNF-α overnight and then analyzed Dlgh1 recruitment to the IS as described above. […]

[3] = system: Treg suppressive function; conditions: literature (Valencia et al.; Zanin-Zhorov et al.); cited from earlier work
[4] = system: Foxp3; conditions: literature (Valencia et al.; Zanin-Zhorov et al.); cited from earlier work

Compound	ability of Treg to suppress IFN-γ secretion from CD4+CD25- T cells [1]	levels of Dlgh1 at IS in Tregs [2]	suppressive activity of human Treg [3]	Foxp3 in human Treg [4]
C[S+]([O-])c1ccc(-c2nc(-c3ccncc3)c(-c3ccc(F)cc3)[nH]2)cc1 (stereo not shown) [SB203580]	significantly down-regulated			
TNF-α		significantly reduced	inhibits	down-regulates
